Each structure is given as a SMILES string. Structures can show the parent of a compound that is named as a salt. A value given as a limit tells only on which side of the number the result lay.

Drawing on BindingDB's records for doi:10.7270/Q2N014XN (Srmlsc, 2007), this text covers IC50 for 46 molecules.

The test addresses T1, Diphosphomevalonate decarboxylase (Streptococcus pneumoniae serotype 2 (strain D39 / NCTC 7466), UniProt A0A0H2ZN59).
T1 sequence (A0A0H2ZN59 whole entry): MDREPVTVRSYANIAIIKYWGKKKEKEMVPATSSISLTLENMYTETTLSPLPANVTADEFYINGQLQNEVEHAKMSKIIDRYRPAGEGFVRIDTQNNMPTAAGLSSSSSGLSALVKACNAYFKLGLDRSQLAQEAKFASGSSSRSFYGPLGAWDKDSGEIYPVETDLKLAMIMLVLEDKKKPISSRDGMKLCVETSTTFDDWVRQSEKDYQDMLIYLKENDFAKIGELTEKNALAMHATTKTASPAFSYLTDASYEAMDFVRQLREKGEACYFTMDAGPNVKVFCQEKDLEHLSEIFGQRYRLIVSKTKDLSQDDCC
As to the kind of experiment: diphosphomevalonate decarboxylase inhibition dose curves – biochemical, PK/LDH-coupled NADH fluorescence, hexokinase coupling counter-screen, dose response (AID 550).

[1] abbreviates: inactive by the depositor's call.

The molecule `Cc1ccsc1C1C(C(=O)O)c2ccccc2C(=O)N1C` (stereo unspecified) [1-keto-2-methyl-3-(3-methyl-2-thienyl)-3,4-dihydroisoquinoline-4-carboxylic acid] had an IC50 greater than 10000 µM.
`O=C(c1noc2c1CCCC2)N1CCCCC1` [1-piperidinyl(4,5,6,7-tetrahydro-1,2-benzoxazol-3-yl)methanone] had an IC50 greater than 10000 µM.
For the molecule `CC1(C)C(C=C(Cl)Cl)C1C(=O)N1CCN(c2ccccc2)CC1` (stereo unspecified) [1-{[3-(2,2-dichlorovinyl)-2,2-dimethylcyclopropyl]carbonyl}-4-phenylpiperazine], the IC50 was greater than 10000 µM.
On the same count and under the same terms, to `c1ccc2c(c1)nnn2Cc1nnc2sc(-c3ccc4c(c3)OCCO4)nn12` [1-{[6-(2,3-dihydro-1,4-benzodioxin-6-yl)[1,2,4]triazolo[3,4-b][1,3,4]thiadiazol-3-yl]methyl}-1H-1,2,3-benzotriazole] belongs 83.8 µM; to `Nc1nc(N)c2sc3nc4c(cc3c2n1)CCC4` [2,3-Dihydro-1H-9-thia-5,7,10-triaza-cyclopenta[b]fluorene-6,8-diamine], greater than 10000 µM; to `Cc1cc(C)c(S(=O)(=O)NCc2cn3c(C)csc3n2)cc1C` [2,4,5-trimethyl-N-[(3-methyl-6-imidazo[2,1-b]thiazolyl)methyl]benzenesulfonamide], greater than 10000 µM.
On the same count and under the same terms, the same measure for `Cc1cc(O)cc(C)n1` [2,6-dimethyl-1H-pyridin-4-one]: greater than 10000 µM; for `Cc1cc(C)c2c(n1)nn1c(N3CCN(c4ccccc4)CC3)cc(C)nc21` [2,8,10-trimethyl-4-(4-phenyl-1-piperazinyl)pyrido[2,3]pyrazolo[2,4-a]pyrimidine]: 12.7 µM; for `O=C(CSc1nnnn1Cc1ccccc1)NCCc1ccccc1` [2-(1-Benzyl-1H-tetrazol-5-ylsulfanyl)-N-phenethyl-acetamide]: greater than 10000 µM.
On to `O=C(NCc1ccco1)c1ccccc1NS(=O)(=O)c1ccc2c(c1)OCCO2` [2-(2,3-dihydro-1,4-benzodioxin-6-ylsulfonylamino)-N-(2-furanylmethyl)benzamide], for which the midpoint of inhibition, the IC50, lay at 42.4 µM.
Molecule `Cc1ccc(C)c(-c2nc3cc(N)ccc3o2)c1` [2-(2,5-Dimethyl-phenyl)-benzooxazol-5-ylamine] yielded an IC50 of 6.06 µM.
On to `CCOc1ccccc1OCC(=O)Nc1ccc(N2CCCCC2)cc1` [2-(2-ethoxyphenoxy)-N-(4-piperidin-1-ylphenyl)acetamide], for which the IC50 is greater than 10000 µM.
In the case of `Cc1oc2cc(O)ccc2c(=O)c1N1C(=O)c2ccccc2C1=O` [2-(2-methyl-7-oxidanyl-4-oxidanylidene-chromen-3-yl)isoindole-1,3-dione], the IC50 worked out at 50.5 µM.
Still for that read-out and setting: to `Cc1ccccc1-c1nc2cc(N)ccc2o1` [2-(2-methylphenyl)-1,3-benzoxazol-5-amine] belongs 10.1 µM; to `O=c1c2ccccc2sn1-c1cc(S(=O)(=O)N2CCOCC2)ccc1N1CCOCC1` [2-(2-morpholin-4-yl-5-morpholin-4-ylsulfonyl-phenyl)-1,2-benzothiazol-3-one], 15.4 µM.
Same read-out and setting: to `CCCOC(=O)Cc1n[nH]c(=O)[nH]c1=O` [2-(3,5-dioxo-2H-1,2,4-triazin-6-yl)acetic acid propyl ester] belongs greater than 10000 µM.
Turning to `Cc1cc(C)c2c(=O)n(CC(=O)NCCCN3CCN(c4ccccc4F)CC3)sc2n1` [2-(4,6-dimethyl-3-oxidanylidene-[1,2]thiazolo[5,4-b]pyridin-2-yl)-N-[3-[4-(2-fluorophenyl)piperazin-1-yl]propyl]ethanamide], it took 36.6 µM to reach half-maximal inhibition under setting [1] (IC50).
As to `CCc1nnc(NC(=O)CSc2nnc(COc3ccccc3)n2Cc2ccccc2)s1` [2-(4-Benzyl-5-phenoxymethyl-4H-[1,2,4]triazol-3-ylsulfanyl)-N-(5-ethyl-[1,3,4]thiadiazol-2-yl)-acetamide], the IC50 is greater than 10000 µM.
Take `CCc1nnc2sc(-c3ccc(NC(=O)CSc4ccc(Cl)cc4)cc3)nn12` [2-(4-chlorophenyl)sulfanyl-N-[4-(3-ethyl-[1,2,4]triazolo[3,4-b][1,3,4]thiadiazol-6-yl)phenyl]acetamide]: the IC50 is 39.6 µM.
Take `CCOC(=O)COc1ccc2nsnc2c1Cl` [2-(4-chloropiazthiol-5-yl)oxyacetic acid ethyl ester]: the IC50 was greater than 10000 µM.
For `CCOc1ccc(-c2nnc(-c3ccncc3)o2)cc1` [2-(4-ethoxyphenyl)-5-pyridin-4-yl-1,3,4-oxadiazole], the IC50 was 52.9 µM.
Still for that read-out and setting: to `CCOC(=O)c1cc2nc(Nc3ccc(OC)cc3)sc2s1` [2-(4-methoxyanilino)-5-thieno[3,2-d]thiazolecarboxylic acid ethyl ester] belongs 44.6 µM; to `COc1ccc(-c2cc(C(=O)OCC(=O)N(C)C)c3ccccc3n2)cc1` [2-(4-methoxyphenyl)-4-quinolinecarboxylic acid [2-(dimethylamino)-2-oxoethyl] ester], 41.1 µM; to `Cc1ccc(-n2sc3ccccc3c2=O)cc1S(=O)(=O)N1CCCCC1` [2-(4-methyl-3-piperidin-1-ylsulfonyl-phenyl)-1,2-benzothiazol-3-one], 3.73 µM.
On to `CCCc1nnc(NC(=O)CN2CCOCC2)s1` [2-(4-morpholinyl)-N-(5-propyl-1,3,4-thiadiazol-2-yl)acetamide;hydrochloride], for which the concentration for half-maximal inhibition (IC50) was greater than 10000 µM.
Turning to `O=c1c2ccccc2sn1-c1ccc(S(=O)(=O)N2CCCCC2)cc1` [2-(4-piperidin-1-ylsulfonylphenyl)-1,2-benzothiazol-3-one], half-maximal inhibition (IC50) was put at 2.15 µM.
The same measure, in the same setting: to `c1ccc(N2CCN(c3cnccn3)CC2)nc1` [2-(4-pyridin-2-ylpiperazin-1-yl)pyrazine] belongs greater than 10000 µM.
`O=c1c2ccccc2sn1-c1ccc(S(=O)(=O)N2CCCC2)cc1` [2-(4-pyrrolidin-1-ylsulfonylphenyl)-1,2-benzothiazol-3-one] registered an IC50 of 2.65 µM.
Same read-out and setting: to `Cc1cc(=O)oc2cc(OC(C)C(=O)O)c(Cl)cc12` (stereo unspecified) [2-(6-chloranyl-4-methyl-2-oxidanylidene-chromen-7-yl)oxypropanoic acid] belongs greater than 10000 µM.
`Cc1ccc2oc(=O)c3cnn(CC(=O)NC4CCN(Cc5ccccc5)CC4)c3c2c1` [2-(8-methyl-4-oxidanylidene-chromeno[4,3-c]pyrazol-1-yl)-N-[1-(phenylmethyl)piperidin-4-yl]ethanamide] returned an IC50 greater than 10000 µM.
Under setting [1], `O=c1cccccc1NCc1ccccc1` [2-(benzylamino)cyclohepta-2,4,6-trien-1-one] registered an IC50 of 278 µM.
With `CCCCCn1c(SCC#N)nc2cc(C(=O)NCC3CCCO3)ccc2c1=O` (stereo unspecified) [2-(cyanomethylsulfanyl)-4-oxidanylidene-N-(oxolan-2-ylmethyl)-3-pentyl-quinazoline-7-carboxamide], the IC50 was greater than 10000 µM.
Regarding `O=c1c2ccccc2[se]n1-c1ccccc1` [2-Phenyl-benzo[d]isoselenazol-3-one], half-maximal inhibition under setting [1] (IC50) required 0.513 µM.
Molecule `Cc1cc(C(=O)CSc2nnnn2-c2ccc(Cl)cc2)c(C)n1CC1CCCO1` (stereo unspecified) [2-[1-(4-chlorophenyl)tetrazol-5-yl]sulfanyl-1-[2,5-dimethyl-1-(oxolan-2-ylmethyl)pyrrol-3-yl]ethanone] came in with an IC50 greater than 10000 µM.
With `Cc1cc(C)c2c(=O)n(CC(=O)N3CCC(Cc4ccccc4)CC3)sc2n1` [2-[2-(4-benzylpiperidin-1-yl)-2-oxoethyl]-4,6-dimethyl-[1,2]thiazolo[5,4-b]pyridin-3-one], the half-inhibitory concentration (IC50) turned out to be 221 µM.
The same measure, in the same setting: the same measure for `O=C(CN1c2cccc3cccc(c23)S1(=O)=O)N1CCOCC1` [2-[2-(4-morpholinyl)-2-oxoethyl]-2H-naphtho[1,8-cd]isothiazole 1,1-dioxide]: 21.9 µM; for `COC(=O)Cn1c(=NC(=O)CSC(C)=O)sc2ccccc21` [2-[2-[2-(acetylthio)-1-oxoethyl]imino-1,3-benzothiazol-3-yl]acetic acid methyl ester]: greater than 10000 µM; for `COc1ccc(C(O)Cn2c(=N)n(CCCN(C)C)c3ccccc32)cc1` (stereo unspecified) [2-[2-azanylidene-3-[3-(dimethylamino)propyl]benzimidazol-1-yl]-1-(4-methoxyphenyl)ethanol;hydrochloride]: greater than 10000 µM.
`COCCNC(=O)C(C#N)c1nc2ccccc2nc1N1CCCCCC1` (stereo unspecified) [2-[3-(1-azepanyl)-2-quinoxalinyl]-2-cyano-N-(2-methoxyethyl)acetamide] returned an IC50 of 190 µM.
`COc1ccc(-c2ccc(-c3nnc(-c4ccncc4)o3)cc2)cc1` [2-[4-(4-methoxyphenyl)phenyl]-5-(4-pyridyl)-1,3,4-oxadiazole] came in with an IC50 of 123 µM.
As to `COC(=O)c1c(NC(=O)c2ccoc2C)sc2c1CCC2` [2-[(2-methyl-3-furoyl)amino]-5,6-dihydro-4H-cyclopenta[b]thiophene-3-carboxylic acid methyl ester], the IC50 came out at 98.9 µM.
Molecule `CCOC(=O)CSc1cc(=O)n(C)c2cc(Cl)ccc12` [2-[(7-chloro-1-methyl-2-oxo-4-quinolinyl)thio]acetic acid ethyl ester] showed an IC50 greater than 10000 µM.
As for `CCOC(=O)c1sc2nc(SCC(=O)NCc3ccco3)n(Cc3ccccc3)c(=O)c2c1C` [2-[[2-(2-furanylmethylamino)-2-oxoethyl]thio]-5-methyl-4-oxo-3-(phenylmethyl)-6-thieno[2,3-d]pyrimidinecarboxylic acid ethyl ester], half-maximal inhibition (IC50) was put at 84.7 µM.
As to `COC(=O)c1ccccc1NC(=O)c1ccc2c(c1)C(=O)N(Cc1ccco1)C2=O` [2-[[2-(2-furfuryl)-1,3-diketo-isoindoline-5-carbonyl]amino]benzoic acid methyl ester], the IC50 was 53.9 µM.
On the same count and under the same terms, to `C=C(C)Cn1c(COc2ccccc2)nnc1SCC(=O)O` [2-[[4-(2-methylallyl)-5-(phenoxymethyl)-1,2,4-triazol-3-yl]thio]acetic acid] belongs greater than 10000 µM; to `Cc1ccc2nc(-c3ccc(SCC(=O)O)nc3)[nH]c2c1` [2-[[5-(6-methyl-1H-benzimidazol-2-yl)-2-pyridinyl]thio]acetic acid], 9.87 µM.
